Assay results: patent US20260193179A9 (priority 2018, published 2026)
Where a name gives a salt, the structure may show the parent alone. Read-outs that look alike come from different tables or passages of the source.

Experiments:
human α-thrombin = human α-thrombin (Homo sapiens, UniProt P00734); assay: Enzymatic Assay for Thrombin (Boc-VPR-AMC substrate); assay type: biochemical
mMASP-2 = mMASP-2 (Mus musculus, UniProt Q91WP0); assay: Enzymatic assay for mMASP-2; assay type: biochemical
Lectin Pathway = Lectin Pathway Activation Assay in Human Serum (mannan-coated ELISA, C3c detection); assay type: biochemical; conditions: 1% human serum
Description: Microtiter ELISA plate was coated with mannan from Saccharomyces cerevisiae (Sigma-Aldrich, M7504) for overnight at 4° C. in coating buffer [15 mM Na2CO3, 35 mM NaHCO3]. Plate was blocked with 1% bovine serum albumin (BSA) (Sigma-Aldrich, A3294) in Tris-buffered Saline (TBS) [10 mM Tris-HCl, 140 mM NaCl] for 2 hours at room temperature. […] 100 μL of this mixture were then added to the plate and plate was incubated at 37° C. for up to an hour with gentle shaking, 200 rpm. After that, plate was washed thrice in wash buffer [TBS containing 5 mM CaCl2) and 0.05% Tween-20] and 100 μL of rabbit anti human C3c (Dako, A0062) diluted 1:5000 in wash buffer were added and incubated at 37° C. for 30 minutes.

MASP-2 (CCP1-CCP2-SP) [1] = target: MASP-2 (CCP1-CCP2-SP) (Homo sapiens, UniProt O00187); assay: Enzymatic Assay for MASP-2 (fluorogenic substrate); assay type: biochemical
MASP-2 (CCP1-CCP2-SP) [2] = assay: Enzymatic Assay for MASP-2 (fluorogenic substrate); assay type: biochemical, human; conditions: selectivity for MASP-2 inhibition versus thrombin
[3] = human α-thrombin, Boc-VPR-AMC substrate

mMASP-2, sequence (Q91WP0 20-685): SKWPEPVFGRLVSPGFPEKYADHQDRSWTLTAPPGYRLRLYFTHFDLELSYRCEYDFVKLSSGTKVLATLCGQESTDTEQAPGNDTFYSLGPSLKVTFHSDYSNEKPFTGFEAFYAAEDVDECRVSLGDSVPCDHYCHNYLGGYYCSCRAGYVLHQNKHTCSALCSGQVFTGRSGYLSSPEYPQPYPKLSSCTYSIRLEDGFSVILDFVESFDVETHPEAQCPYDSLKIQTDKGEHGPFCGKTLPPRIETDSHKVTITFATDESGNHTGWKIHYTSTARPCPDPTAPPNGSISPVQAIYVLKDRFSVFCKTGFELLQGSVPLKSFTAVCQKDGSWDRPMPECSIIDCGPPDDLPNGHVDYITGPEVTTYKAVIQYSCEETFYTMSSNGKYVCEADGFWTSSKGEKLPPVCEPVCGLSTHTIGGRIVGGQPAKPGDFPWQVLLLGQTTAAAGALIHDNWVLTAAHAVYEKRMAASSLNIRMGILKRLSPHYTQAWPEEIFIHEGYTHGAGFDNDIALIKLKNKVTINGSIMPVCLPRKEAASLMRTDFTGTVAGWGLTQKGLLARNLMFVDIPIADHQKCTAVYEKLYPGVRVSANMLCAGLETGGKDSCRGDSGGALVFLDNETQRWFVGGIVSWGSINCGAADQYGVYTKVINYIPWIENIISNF
MASP-2 (CCP1-CCP2-SP) (Homo sapiens, UniProt O00187), sequence (O00187 445-686): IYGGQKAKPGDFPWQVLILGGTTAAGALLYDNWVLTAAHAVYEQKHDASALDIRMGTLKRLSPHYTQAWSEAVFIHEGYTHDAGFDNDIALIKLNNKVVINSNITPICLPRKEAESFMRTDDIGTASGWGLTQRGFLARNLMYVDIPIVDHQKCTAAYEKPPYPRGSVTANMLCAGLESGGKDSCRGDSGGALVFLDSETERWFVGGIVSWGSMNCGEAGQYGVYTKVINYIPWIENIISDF
MASP-2 (CCP1-CCP2-SP) (Homo sapiens, UniProt O00187), sequence (O00187 298-444): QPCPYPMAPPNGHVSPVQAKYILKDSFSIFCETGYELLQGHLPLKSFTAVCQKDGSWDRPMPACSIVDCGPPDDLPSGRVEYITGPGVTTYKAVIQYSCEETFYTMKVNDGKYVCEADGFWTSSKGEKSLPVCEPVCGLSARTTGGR

SMILES	Ki (mMASP-2)	Ki (MASP-2 (CCP1-CCP2-SP) [1])	MASP-2 vs. thrombin selectivity (MASP-2 (CCP1-CCP2-SP) [2])	IC50 (Lectin Pathway; mannan-coated plate)	further results
Cc1nc(N)ccc1CNC(=O)C(C)NC(=O)[C@H]1C[C@H](c2cccc(-c3ccccc3)c2)CN1 (stereo in doubt) [compound 1359, (2R,4R)-4-([1,1′-Biphenyl]-3-yl)-N—((S)-1-(((6-amino-2-methylpyridin-3-yl)methyl)amino)-1-oxopropan-2-yl)pyrrolidine-2-carboxamide Di-trifluoroacetate salt]	–	–	–	–	Ki (human α-thrombin; [3]): > 25000 nM
C[C@H](NC(=O)[C@H](N)CCc1ccccc1)C(=O)NCc1cccc(Cl)c1 [compound 1021]	> 25000 nM	–	–	–	Ki (human α-thrombin): > 25000 nM; IC50 (Lectin Pathway): > 50000 nM
C[C@H](NC(=O)[C@H](N)CCc1ccccc1)C(=O)NCc1ccc2c(N)ncnc2c1 [compound 1060, (R)-2-Amino-N—((S)-1-(((4-aminoquinazolin-7-yl)methyl)amino)-1-oxopropan-2-yl)-4-phenylbutanamide Dihydrochloride]	–	< 2500 nM	–	–	–
C[C@H](NC(=O)[C@H](N)CCc1cccc(Cl)c1)C(=O)NCc1ccc(C(=N)N)cc1 [compound 1081]	< 500 nM	–	–	–	IC50 (Lectin Pathway): 50 to 5000 nM
C[C@H](NC(=O)[C@@H](CCc1ccccc1)NCc1ccc(C(=O)N2CCOCC2)cc1)C(=O)NCc1ccc(C(=N)N)cc1 [compound 1153]	–	< 500 nM	–	–	Ki (human α-thrombin): < 500 nM
C[C@H](NC(=O)[C@H](N)CCc1ccccc1)C(=O)NCc1cc(Cl)ccc1C#N [compound 1313, Trifluoroacetate salt]	> 25000 nM	2500 to 10000 nM	–	–	Ki (human α-thrombin; [3]): 10000 to 25000 nM
C[C@H](OC(=O)[C@H](N)CCc1ccccc1)C(=O)NCc1ccc(C(=N)N)cc1 [compound 1315, (S)-1-((4-Carbamimidoylbenzyl)amino)-1-oxopropan-2-yl (R)-2-amino-4-phenylbutanoate Hydrochloride]	–	500 to 2500 nM	–	–	Ki (human α-thrombin; [3]): 2500 to 10000 nM
Cc1nc(N)ccc1CNC(=O)[C@H](C)NC(=O)[C@H]1C[C@H](Cc2ccc(-c3cccnc3)cc2)CN1 [compound 1357, (2R,4S)—N—((S)-1-(((6-Amino-2-methylpyridin-3-yl)methyl)amino)-1-oxopropan-2-yl)-4-(4-(pyridin-3-yl)benzyl)pyrrolidine-2-carboxamide Di-trifluoracetate salt]	–	–	**** (≥100-fold)	< 50 nM	–
Cc1cc(Cl)cc(CNC(=O)[C@H](C)NC(=O)[C@H]2C[C@@H](c3ccccc3)CCN2)c1O [compound 1365, (2R,4S)—N—((S)-1-((5-Chloro-2-hydroxy-3-methylbenzyl)amino)-1-oxopropan-2-yl)-4-phenylpiperidine-2-carboxamide]	–	–	**** (≥100-fold)	< 50 nM	–
Cc1nc(N)ccc1CNC(=O)[C@H](CCC(N)=O)NC(=O)[C@H](N)CCc1ccccc1 [compound 1376, (S)—N^1-((6-Amino-2-methylpyridin-3-yl)methyl)-2-((R)-2-amino-4-phenylbutanamido)pentanediamide]	> 25000 nM	500 to 2500 nM	–	–	Ki (human α-thrombin; [3]): > 25000 nM
Cc1nc(N)ccc1CNC(=O)[C@H](C)NC(=O)[C@H]1C[C@H](Cc2ccc(C3CCC3)cc2)CN1 [compound 1379, (2R,4S)—N—((S)-1-(((6-Amino-2-methylpyridin-3-yl)methyl)amino)-1-oxopropan-2-yl)-4-(4-cyclobutylbenzyl)pyrrolidine-2-carboxamide]	–	–	**** (≥100-fold)	500 to 5000 nM	–
C[C@H](NC(=O)[C@H]1C[C@H](Cc2ccc3ccccc3c2)CN1)C(=O)NCc1cc(Cl)ccc1-n1cnnn1 [compound 1385, (2R,4S)—N—((S)-1-((5-chloro-2-(1H-tetrazol-1-yl)benzyl)amino)-1-oxopropan-2-yl)-4-(naphthalen-2-ylmethyl)pyrrolidine-2-carboxamide]	–	–	** (≥5.0 to <25-fold)	50 to 500 nM	–
Cc1nc(N)ccc1CNC(=O)[C@H](C)NC(=O)[C@H]1C[C@H](Cc2ccc(N3CCCC3=O)cc2)CN1 [compound 1391, (2R,4S)—N—((S)-1-(((6-Amino-2-methylpyridin-3-yl)methyl)amino)-1-oxopropan-2-yl)-4-(4-(2-oxopyrrolidin-1-yl)benzyl)pyrrolidine-2-carboxamide]	–	–	**** (≥100-fold)	500 to 5000 nM	–
C[C@H](NC(=O)[C@H]1C[C@H](Cc2ccccc2-c2ccccc2)CN1)C(=O)NCc1cnc2[nH]cc(Cl)c2c1 [compound 1393, (2R,4S)-4-([1,1′-Biphenyl]-2-ylmethyl)-N—((S)-1-(((3-chloro-1H-pyrrolo[2,3-b]pyridin-5-yl)methyl)amino)-1-oxopropan-2-yl)pyrrolidine-2-carboxamide]	–	–	* (≥1.0 to <5.0-fold)	50 to 500 nM	–
COc1cc(C[C@@H]2CN[C@@H](C(=O)N[C@@H](C)C(=O)NCc3cc(Cl)ccc3-n3cnnn3)C2)cc(OC)c1 [compound 1419, (2R,4S)—N—((S)-1-((5-Chloro-2-(1H-tetrazol-1-yl)benzyl)amino)-1-oxopropan-2-yl)-4-(3,5-dimethoxybenzyl)pyrrolidine-2-carboxamide]	< 500 nM	–	* (≥1.0 to <5.0-fold)	–	–
